The target of the first test is SARS-CoV-2 Papain-Like Protease (PLpro) (Severe acute respiratory syndrome coronavirus 2 (2019-nCoV) (SARS-CoV-2), UniProt P0DTD1). Briefly: biochemical. As to conditions: PLpro IC50, PLpro enzymatic fluorescence assay; class symbols.
By IC50 is commonly meant the point on the concentration scale where inhibition reaches its midpoint. For `Cc1ccc(OC[C@@H]2CCN2C)cc1C(=O)NC1(c2cc3ccccc3c3ccccc23)CC1` [Compound 569, (S)-2-Methyl-5-((1-methylazetidin-2-yl)methoxy)-N-(1-(phenanthren-9-yl)cyclopropyl)benzamide], the IC50 was over 5000 nM.

The test is the same for the next values; noted with them: PLpro enzymatic fluorescence assay; class symbols; read-out: PLpro IC50.
Take `Cc1ccc(OC[C@@H](C)N)cc1C(=O)NC1(c2cc(Br)cc3ccccc23)CC1` [Compound 540, (R)-5-(2-Aminopropoxy)-N-(1-(3-bromonaphthalen-1-yl)cyclopropyl)-2-methylbenzamide]: the IC50 was under 100 nM.
As for `Cc1ccc(OC[C@@H](C)N)cc1C(=O)NC1(c2cc(-c3cccs3)cc3ccccc23)CC1` [Compound 543, (R)-5-(2-Aminopropoxy)-2-methyl-N-(1-(3-(thiophen-2-yl)naphthalen-1-yl)cyclopropyl)benzamide], the IC50 was under 100 nM.
Take `CC(C)c1ccccc1C(C)N1CCC(C(=O)NCc2cccc(F)c2)CC1` (centres unmarked) [Compound 552, N-(3-Fluorobenzyl)-1-(1-(2-isopropylphenyl)ethyl)piperidine-4-carboxamide]: the IC50 is over 5000 nM.
Turning to `COc1cc(C2(NC(=O)c3cc(OC[C@@H]4CCCCN4C)ccc3C)CC2)c2cccnc2c1` [Compound 553, (S)-N-(1-(7-Methoxyquinolin-5-yl)cyclopropyl)-2-methyl-5-((1-methylpiperidin-2-yl)methoxy)benzamide], the IC50 was under 100 nM.
`COc1cc(C2(NC(=O)c3cc(OC[C@H]4CCN4)ccc3C)CC2)c2cccnc2c1` [Compound 554, (R)-5-(Azetidin-2-ylmethoxy)-N-(1-(7-methoxyquinolin-5-yl)cyclopropyl)-2-methylbenzamide]: the IC50 was under 100 nM.
As for `COc1cc(C2(NC(=O)c3cc(OC[C@H]4C[C@H](F)CN4)ccc3C)CC2)c2cccnc2c1` [Compound 556, 5-(((2R,4S)-4-Fluoropyrrolidin-2-yl)methoxy)-N-(1-(7-methoxyquinolin-5-yl)cyclopropyl)-2-methylbenzamide], the IC50 is under 100 nM.
With `COc1cc(C2(NC(=O)c3cc(OC[C@H]4C[C@H](F)CN4C)ccc3C)CC2)c2cccnc2c1` [Compound 557, 5-(((2R,4S)-4-Fluoro-1-methylpyrrolidin-2-yl)methoxy)-N-(1-(7-methoxyquinolin-5-yl)cyclopropyl)-2-methylbenzamide], the IC50 was under 100 nM.
`COc1cc(C2(NC(=O)c3cc(OC[C@H]4CCN4C)ccc3C)CC2)c2cccnc2c1` [Compound 558, (R)-N-(1-(7-Methoxyquinolin-5-yl)cyclopropyl)-2-methyl-5-((1-methylazetidin-2-yl)methoxy)benzamide]: the IC50 is under 100 nM.
As to `COc1cc(C2(NC(=O)c3cc(OCC45CCCN4CCC5)ccc3C)CC2)c2cccnc2c1` [Compound 559, 5-((Hexahydro-1H-pyrrolizin-7a-yl)methoxy)-N-(1-(7-methoxyquinolin-5-yl)cyclopropyl)-2-methylbenzamide], the IC50 is under 100 nM.
Take `COc1cc(C2(NC(=O)c3cc(OCc4ccccn4)ccc3C)CC2)c2cccnc2c1` [Compound 562, N-(1-(7-Methoxyquinolin-5-yl)cyclopropyl)-2-methyl-5-(pyridin-2-ylmethoxy)benzamide]: the IC50 was 100 to 1000 nM.
Consider `COc1cc(C2(NC(=O)c3cc(OC[C@@H]4CCN4C)ccc3C)COC2)c2ccccc2c1` [Compound 566], for which the IC50 is under 100 nM.
Consider `COc1cc(C2(NC(=O)c3cc(OC[C@@H]4CCN4CCF)ccc3C)CC2)c2cccnc2c1` [Compound 567, (S)-5-((1-(2-Fluoroethyl)azetidin-2-yl)methoxy)-N-(1-(7-methoxyquinolin-5-yl)cyclopropyl)-2-methylbenzamide], for which the IC50 is under 100 nM.
Take `C=Cc1cc(C2(NC(=O)c3cc(OC[C@@H]4CCN4C)ccc3C)CC2)c2cccnc2c1` [Compound 570, (S)-2-Methyl-5-((1-methylazetidin-2-yl)methoxy)-N-(1-(7-vinylquinolin-5-yl)cyclopropyl)benzamide]: the IC50 is under 100 nM.
For `COc1cc(C2(NC(=O)c3cc(OCCN(C)CCF)ccc3C)CC2)c2cccnc2c1` [Compound 571, 5-(2-((2-Fluoroethyl)(methyl)amino)ethoxy)-N-(1-(7-methoxyquinolin-5-yl)cyclopropyl)-2-methylbenzamide], the IC50 was under 100 nM.
Consider `COc1cc(C2(NC(=O)c3cc(OCC(N)C(C)C)ccc3C)CC2)c2cccnc2c1` (centres unmarked) [Compound 572, 5-(2-Amino-3-methylbutoxy)-N-(1-(7-methoxyquinolin-5-yl)cyclopropyl)-2-methylbenzamide], for which the IC50 was under 100 nM.
Consider `CN[C@H](C)COc1ccc(C)c(C(=O)NC2(c3cc(OC)cc4ncccc34)CC2)c1` [Compound 573, (R)-N-(1-(7-Methoxyquinolin-5-yl)cyclopropyl)-2-methyl-5-(2-(methylamino)propoxy)benzamide], for which the IC50 is under 100 nM.

Still in this test, the particulars now being: SARS-CoV-2 PLpro enzymatic fluorescence assay; read-out: PLpro IC50.
Take `COc1cc(C2(NC(=O)c3cc(CC[C@@H]4CCC4C)ccc3C)CC2)c2ccncc2c1` (some centres unmarked) [Compound 538]: the concentration for half-maximal inhibition (IC50) is under 100 nM.
The same measure, in the same setting: then `Cc1ccc(OC[C@H](C)N)cc1C(=O)NC1(c2cc(-c3cccs3)cc3ccccc23)CC1` [Compound 539, (S)-5-(2-Aminopropoxy)-2-methyl-N-(1-(3-(thiophen-2-yl)naphthalen-1-yl)cyclopropyl)benzamide], with under 100 nM.
Consider `Cc1ccc(OC[C@H](C)N)cc1C(=O)NC1(c2cc(Br)cc3ccccc23)CC1` [Compound 541, (S)-5-(2-Aminopropoxy)-N-(1-(3-bromonaphthalen-1-yl)cyclopropyl)-2-methylbenzamide], for which the IC50 is under 100 nM.
For the compound `Cc1ccc(OC[C@@H]2CCN2C)cc1C(=O)NC1(c2cc(O)nc3cc(F)ccc23)CC1` [Compound 542, (S)-N-(1-(7-Fluoro-2-hydroxyquinolin-4-yl)cyclopropyl)-2-methyl-5-((1-methylazetidin-2-yl)methoxy)benzamide], the IC50 was under 100 nM.
On the same count and under the same terms, the same measure for `COc1ccc2c(C3(NC(=O)c4cc(OC[C@@H]5CCN5C)ccc4C)CC3)cccc2n1` [Compound 544, (S)-N-(1-(2-Methoxyquinolin-5-yl)cyclopropyl)-2-methyl-5-((1-methylazetidin-2-yl)methoxy)benzamide]: under 100 nM; for `Cc1ccc(OC[C@@H]2CCN2C)cc1C(=O)NC1(c2cccc3nc(O)ccc23)CC1` [Compound 545, (S)-N-(1-(2-Hydroxyquinolin-5-yl)cyclopropyl)-2-methyl-5-((1-methylazetidin-2-yl)methoxy)benzamide]: under 100 nM; for `Cc1ccc2c(C3(NC(=O)c4cc(OC[C@@H]5CCN5C)ccc4C)CC3)cccc2n1` [Compound 547, (S)-2-Methyl-5-((1-methylazetidin-2-yl)methoxy)-N-(1-(2-methylquinolin-5-yl)cyclopropyl)benzamide]: under 100 nM.
Same read-out and setting: then `Cc1ccc(OC[C@@H]2CCN2C)cc1C(=O)NC1(c2cccc3nc(N(C)C)ccc23)CC1` [Compound 548, (S)-N-(1-(2-(Dimethylamino)quinolin-5-yl)cyclopropyl)-2-methyl-5-((1-methylazetidin-2-yl)methoxy)benzamide], with under 100 nM.
With `CC(c1cccc2ncccc12)N1CCC(C(=O)NCc2cccc(F)c2)CC1` (centres unmarked) [Compound 549, N-(3-Fluorobenzyl)-1-(1-(quinolin-5-yl)ethyl)piperidine-4-carboxamide], the IC50 is over 5000 nM.
On to `COc1cc(C2(NC(=O)c3cc(OC[C@@H]4CCCCN4)ccc3C)CC2)c2cccnc2c1` [Compound 550, (S)-N-(1-(7-Methoxyquinolin-5-yl)cyclopropyl)-2-methyl-5-(piperidin-2-ylmethoxy)benzamide], for which the IC50 is under 100 nM.
Take `Cc1ccc(OC[C@@H]2CCN2C)cc1C(=O)NC1(c2cc(-c3cccs3)cc3ncccc23)CC1` [Compound 551, (S)-2-Methyl-5-((1-methylazetidin-2-yl)methoxy)-N-(1-(7-(thiophen-2-yl)quinolin-5-yl)cyclopropyl)benzamide]: the IC50 is under 100 nM.
`COc1cc(C2(NC(=O)c3cc(OC[C@@H]4CCN4C)ccc3C)CC2)c2ccccc2n1` [Compound 555, (S)-N-(1-(2-Methoxyquinolin-4-yl)cyclopropyl)-2-methyl-5-((1-methylazetidin-2-yl)methoxy)benzamide]: the half-maximal inhibitory concentration (IC50) was under 100 nM.
The same measure, in the same setting: the same measure for `CN[C@@H](C)COc1ccc(C)c(C(=O)NC2(c3cc(OC)cc4ncccc34)CC2)c1` [Compound 560, (S)-N-(1-(7-Methoxyquinolin-5-yl)cyclopropyl)-2-methyl-5-(2-(methylamino)propoxy)benzamide]: under 100 nM.
As to `COc1ccnc(COc2ccc(C)c(C(=O)NC3(c4cc(OC)cc5ncccc45)CC3)c2)c1` [Compound 561, 5-((4-Methoxypyridin-2-yl)methoxy)-N-(1-(7-methoxyquinolin-5-yl)cyclopropyl)-2-methylbenzamide], the IC50 fell in the range of 100 to 1000 nM.
In the case of `Cc1ccc(OC[C@@H]2CCN2C)cc1C(=O)NC1(c2cc(Br)cc3ncccc23)CC1` [Compound 563, (S)-N-(1-(7-Bromoquinolin-5-yl)cyclopropyl)-2-methyl-5-((1-methylazetidin-2-yl)methoxy)benzamide], the IC50 was under 100 nM.
Consider `Cc1ccc(OC[C@@H]2CCN2C)cc1C(=O)NC1(c2cc(O)nc3ccccc23)CC1` [Compound 565, (S)-N-(1-(2-Hydroxyquinolin-4-yl)cyclopropyl)-2-methyl-5-((1-methylazetidin-2-yl)methoxy)benzamide], for which the IC50 is under 100 nM.
Still for that read-out and setting: then `C=C(C)c1cc(C2(NC(=O)c3cc(OC[C@@H]4CCN4C)ccc3C)CC2)c2cccnc2c1` [Compound 568, (S)-2-Methyl-5-((1-methylazetidin-2-yl)methoxy)-N-(1-(7-(prop-1-en-2-yl)quinolin-5-yl)cyclopropyl)benzamide], with under 100 nM; and `Cc1ccc(OCCN(C)C)cc1NC(=O)C(C)c1cccc2ccccc12` (centres unmarked) [Compound 577, N-(5-(2-(Dimethylamino)ethoxy)-2-methylphenyl)-2-(naphthalen-1-yl)propanamide], with over 5000 nM.

The values above are taken from patent publication US20250025443A1, “COMPOUNDS AND METHODS FOR TREATING CORONA VIRUSES” (CLEAR CREEK BIO, INC., priority 2021, published 2025).
